This is an account of results in US10597414B2, “Crystalline polymorphic form of 3-hydroxy-4,5-bis-benzyloxy-6-benzyloxymethyl-2-phenyl-2-OXO-2λ5-[1,2]oxaphosphinane” (PHOST'IN, priority 2016, dated 2020).

One data set concerns glioblastoma. Conditions: prior art, J. Med. Chem. 2012, 55, 2196-2211; cited from earlier work.
The nature of data set [1]: Compression test followed by X-ray diffraction. The data set is classed as physicochemical. Conditions: pressure of 10 tons for 5 min, 13 mm die. As for the experimental part:
Compression Test The sample was introduced into a die with 13 mm diameter (m=103.83 mg). The sample was then compressed with a hydraulic press at a pressure of 10 tons for 5 minutes, and immediately analyzed by X-ray diffraction.

Data set [2] can be described thus: Stability of polymorphic forms (maturation at room temperature, cross-seeding tests). The class given is physicochemical. The following applies: 25° C., several days of maturation. The procedure:
Other polymorphic forms could be obtained by recrystallizing out from specific organic solvents starting from the crystalline form of the invention. However, said other polymorphic forms are not stable after several days of maturation at room temperature (more specifically at 25° C.).

Data set [3] can be described thus: Thermogravimetric analysis (TGA). The class given is physicochemical. The following applies: about 25° C. to 250° C., before and after melting. As for the experimental part: The analyses were performed on a Perkin Elmer Pyris 1 TGA. The samples (few milligrams of product obtained by carrying out the above scheme 5) were placed in an aluminum pan and the cover was crimped. Analyses were performed under nitrogen purge (20 mL/min) and the cover was punctured at the beginning of the analysis.
Temperature scans were carried out between 25° C. and 300° C. at a speed of 10°/min (unless stated otherwise).

A short description of data set [4]: Dynamic vapor sorption (DVS) analysis. The data set is classed as physicochemical. As for the experimental part: Dynamic Vapor Sorption (DVS)
The analyses were performed on a Surface Measurements System DVS Intrinsic. The samples (few milligrams of product obtained by carrying out the above scheme 5) were placed in an open aluminum pan. Analyses were performed at 25° C.
Relative humidity was scanned between 0% RH and 95% RH with 10% RH steps (40-0-95-0-95; unless stated otherwise). The stability criterion was a variation in mass lower than 0.002% on a 5 min. window (with a minimum step time of 10 min and a maximum of 100 min).

Take `O=[P@@]1(c2ccccc2)O[C@H](COCc2ccccc2)[C@@H](OCc2ccccc2)[C@H](OCc2ccccc2)[C@H]1O` [PST3.1a]: the “Relative potency among the four diastereoisomers” value with glioblastoma is “most potent diastereoisomer”.
As for `O=P1(c2ccccc2)OC(COCc2ccccc2)C(OCc2ccccc2)C(OCc2ccccc2)C1O` (centres unmarked) [crystalline form of compound I, 3-Hydroxy-4,5-bis-benzyloxy-6-benzyloxymethyl-2-phenyl-2-oxo-2λ5-[1,2]oxaphosphinane], the “Solid state stability after compression (diffraction pattern vs starting material)” value in data set [1] is “same peaks”. Besides, in data set [2], the “Relative stability of polymorphic form” value is recorded as “most stable form”. Besides, the “Weight loss by TGA” value in data set [3] is reported as “no significant weight loss”. Moreover, the Hygroscopicity result in data set [4] (DVS, 0% RH to 95% RH, 25° C.) is given as “non-hygroscopic”. Also, the DVS weight loss result in data set [4] (drying steps, 25° C., relative humidity 0% RH to 95% RH) was “lower than 0.1%”. Moreover, the “XRPD pattern after DVS analysis compared with before” value in data set [4] (sample kept at 95% RH on the final step) was “same profile”. For the same compound, the “DVS weight gain with respect to the initial weight” value in data set [4] (steps at higher relative humidity conditions, 25° C.) is reported as 0.1%.
